Legend:
[1] = tested on: wheat; test: Test A pre-/postemergence herbicide test; type: in vivo, Triticum aestivum; conditions: Postemergence; for Plant response rating, Wheat: 125 g ai/ha, 0 to 100 scale; for Wheat plant response rating (0 to 100 scale, 0 is no effect, 100 is complete control): 500 g ai/ha
Summary of the method: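 Greenhouse pot test with pre- and postemergence application of surfactant-containing solvent formulations. Postemergence plants were 2–10 cm, one- to two-leaf stage. Response scored visually after ~10 days, 0 (no effect) to 100 (complete control).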

[2] = tested on: sedge, umbrella; test: Test C flooded paddy test; type: in vivo, Cyperus difformis; conditions: Flood
Summary of the method: (§1)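 Plants at the 2-leaf stage in pots flooded to 3 cm were treated by applying compound directly to the paddy water, with depth held throughout. After 13 to 15 days in a greenhouse, response was rated visually against controls on a 0 (no effect) to 100 (complete control) scale.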

[3] = tested on: rice; test: Test B flooded paddy test; type: in vivo, Oryza sativa; conditions: 500 g ai/ha, Flood; scale of 0 to 100 where 0 is no effect and 100 is complete control
Summary of the method: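 Visual ratings from 0, meaning no effect, up to 100, meaning complete control, were made by comparison with untreated controls 13 to 15 days after treatment. Test compounds went straight into floodwater standing 3 cm over the soil of pots holding 2-leaf seedlings.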

[4] = tested on: rice; test: Test C flooded paddy test; type: in vivo, Oryza sativa; conditions: Flood
Summary of the method: as §1

[5] = tested on: galium; test: Test C pre-/postemergence herbicide test; type: in vivo, Galium aparine
Summary of the method: (§2)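 Greenhouse pots; formulation = non-phytotoxic solvent mix + surfactant. PRE onto seeds in loam:sand; POST at 1–4 leaves (2–18 cm) in peat moss/vermiculite medium. Read-out: visual % control vs untreated, day 13–15.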

[6] = tested on: foxtail, giant; test: Test C pre-/postemergence herbicide test; type: in vivo, Setaria faberii
Summary of the method: as §2

[7] = tested on: wheat (winter wheat); test: Test C pre-/postemergence herbicide test; type: in vivo, Triticum aestivum
Summary of the method: as §2

[8] = tested on: pigweed; test: Test C pre-/postemergence herbicide test; type: in vivo, Amaranthus retroflexus
Summary of the method: as §2

[9] = 31 g ai/ha, scale of 0 to 100 where 0 is no effect and 100 is complete control, 13 to 15 days
[10] = 62 g ai/ha, scale of 0 to 100 where 0 is no effect and 100 is complete control, 13 to 15 days
[11] = 125 g ai/ha, scale of 0 to 100 where 0 is no effect and 100 is complete control, 13 to 15 days
[12] = Preemergence, 31 g ai/ha, scale 0 to 100, 0 is no effect and 100 is complete control
[13] = Preemergence, 62 g ai/ha, scale 0 to 100
[14] = Preemergence, 125 g ai/ha, scale 0 to 100 (0 no effect, 100 complete control)
[15] = Postemergence, 31 g ai/ha, scale 0 to 100 (0 no effect, 100 complete control)
[16] = Postemergence, 62 g ai/ha, scale 0 (no effect) to 100 (complete control)
[17] = Postemergence, 125 g ai/ha, scale 0 to 100 (0 no effect, 100 complete control)
[18] = Postemergence, 250 g ai/ha, scale 0 to 100 (0 no effect, 100 complete control)
[19] = 250 g ai/ha, scale of 0 to 100 where 0 is no effect and 100 is complete control, 13 to 15 days
[20] = Preemergence, 62 g ai/ha, scale 0 to 100 (0 no effect, 100 complete control)

`O=C1NCC(c2ccc(F)cc2)C1C(=O)Nc1cccc(F)c1F` (racemic) [Compound 119] was tested, and the “Plant response rating, Wheat” value ([1]; 0 no effect, 100 complete control) was 20, the “Wheat plant response rating (0 to 100 scale, 0 is no effect, 100 is complete control)” value [1] was 70 and the “Plant response rating, Sedge, Umbrella” value [2, 9] was 0. The “Plant response rating, Sedge, Umbrella” value [2, 10] was 0, the “Plant response rating, Sedge, Umbrella” value [2, 11] was 0 and the “Plant response rating, Sedge, Umbrella” value ([2]; 250 g ai/ha, scale 0 to 100) was 0. For the same compound, the “Plant response rating, Rice” value [3] was 10, the “Plant response rating, Rice” value [4, 9] was 0 and the “Plant response rating, Rice” value [4, 10] was 0. For the same compound, the “Plant response rating, Rice” value [4, 11] was 10, the “Plant response rating, Rice” value ([4]; 250 g ai/ha, scale 0 to 100) was 20 and the “Galium plant response rating” value [5, 12] was 80. For the same compound, the “Plant response rating, Galium” value [5, 13] was 80, the “Plant response rating, Galium” value [5, 14] was 85 and the “Plant response rating (scale of 0 to 100), Galium” value ([5]; Preemergence, 250 g ai/ha) was 90. The “Plant response rating, Foxtail, Giant” value [6, 15] was 10, the “Plant response rating, Foxtail, Giant” value [6, 16] was 25 and the “Plant response rating, Foxtail, Giant” value [6, 17] was 85. The “Plant response rating, Foxtail, Giant” value [6, 18] was 90, the “Foxtail, Giant plant response rating” value [6, 12] was 90 and the “Plant response rating, Foxtail, Giant” value [6, 13] was 90. The “Plant response rating, Foxtail, Giant” value [6, 14] was 98, the “Plant response rating (scale of 0 to 100), Foxtail, Giant” value ([6]; Preemergence, 250 g ai/ha) was 98 and the “Plant response rating, Wheat” value [7, 15] was 0. The “Plant response rating, Wheat” value [7, 16] was 0, the “Plant response rating, Wheat” value [7, 17] was 0 and the “Plant response rating, Wheat” value [7, 18] was 0. The “Wheat plant response rating” value [7, 12] was 5, the “Plant response rating, Wheat” value [7, 13] was 5 and the “Plant response rating, Wheat” value [7, 14] was 60. The “Plant response rating (scale of 0 to 100), Wheat” value ([7]; Preemergence, 250 g ai/ha) was 90, the “Plant response rating, Pigweed” value [8, 15] was 10 and the “Plant response rating, Pigweed” value [8, 16] was 10. For the same compound, the “Plant response rating, Pigweed” value [8, 17] was 15, the “Plant response rating, Pigweed” value [8, 18] was 25 and the “Pigweed plant response rating” value [8, 12] was 30. The “Plant response rating, Pigweed” value [8, 13] was 60, the “Plant response rating, Pigweed” value [8, 14] was 75 and the “Plant response rating (scale of 0 to 100), Pigweed” value ([8]; Preemergence, 250 g ai/ha) was 85.

For `O=C1NCC(c2cccc(OC(F)F)c2)C1C(=O)Nc1ccccc1F` (stereo not shown) [Compound 223], the “Plant response rating, Wheat” value ([1]; 0 is no effect, 100 is complete control) was 40, the “Wheat plant response rating (0 to 100 scale, 0 is no effect, 100 is complete control)” value [1] was 50 and the “Plant response rating, Sedge, Umbrella” value [2, 9] was 0. For the same compound, the “Plant response rating, Sedge, Umbrella” value [2, 10] was 0, the “Plant response rating, Sedge, Umbrella” value [2, 11] was 0 and the “Plant response rating, Sedge, Umbrella” value [2, 19] was 0. For the same compound, the “Plant response rating, Rice” value [3] was 0, the “Plant response rating, Rice” value [4, 9] was 0 and the “Plant response rating, Rice” value [4, 10] was 0. For the same compound, the “Plant response rating, Rice” value [4, 11] was 0, the “Plant response rating, Rice” value [4, 19] was 0 and the “Plant response rating, Galium” value [5, 15] was 5. For the same compound, the “Plant response rating, Galium” value [5, 16] was 5, the “Plant response rating, Galium” value [5, 17] was 45 and the “Plant response rating, Galium” value [5, 18] was 70. For the same compound, the “Galium plant response rating” value [5, 12] was 0, the “Galium plant response rating” value [5, 20] was 0 and the “Plant response rating, Galium” value [5, 14] was 90. The “Plant response rating (scale of 0 to 100), Galium” value ([5]; Preemergence, 250 g ai/ha) was 90, the “Plant response rating, Foxtail, Giant” value [6, 15] was 0 and the “Plant response rating, Foxtail, Giant” value [6, 16] was 35. For the same compound, the “Plant response rating, Foxtail, Giant” value [6, 17] was 30, the “Plant response rating, Foxtail, Giant” value [6, 18] was 35 and the “Foxtail, Giant plant response rating” value [6, 12] was 70. The “Foxtail, Giant plant response rating” value [6, 20] was 85, the “Plant response rating, Foxtail, Giant” value [6, 14] was 90 and the “Plant response rating (scale of 0 to 100), Foxtail, Giant” value ([6]; Preemergence, 250 g ai/ha) was 98. The “Plant response rating, Wheat” value [7, 15] was 0, the “Plant response rating, Wheat” value [7, 16] was 0 and the “Plant response rating, Wheat” value [7, 17] was 0. The “Plant response rating, Wheat” value [7, 18] was 0, the “Wheat plant response rating” value [7, 12] was 0 and the “Wheat plant response rating” value [7, 20] was 5. For the same compound, the “Plant response rating, Wheat” value [7, 14] was 10, the “Plant response rating (scale of 0 to 100), Wheat” value ([7]; Preemergence, 250 g ai/ha) was 35 and the “Plant response rating, Pigweed” value [8, 15] was 5. The “Plant response rating, Pigweed” value [8, 16] was 10, the “Plant response rating, Pigweed” value [8, 17] was 10 and the “Plant response rating, Pigweed” value [8, 18] was 60. The “Pigweed plant response rating” value [8, 12] was 20, the “Pigweed plant response rating” value [8, 20] was 5 and the “Plant response rating, Pigweed” value [8, 14] was 20. For the same compound, the “Plant response rating (scale of 0 to 100), Pigweed” value ([8]; Preemergence, 250 g ai/ha) was 30.

From patent US10294202B2, “Pyrrolidinones as herbicides” (FMC Corporation, priority 2013, dated 2019)
